Results on 6 compounds are retold here after ChEMBL document CHEMBL4020740, “Antitubulin effects of aminobenzothiophene-substituted triethylated chromones” (Bioorg Med Chem Lett, 2017).

Calls of active or inactive are those of the source. No cut-off for these calls is given here. Some results are limits rather than exact numbers.

For series [1], the system named is A549. The series can be described thus: Antiproliferative activity against human A549 cells by sulforhodamine B assay.
Series [2] has as its system MDA-MB-231. Description: Antiproliferative activity against human MDA-MB-231 cells by sulforhodamine B assay. In general terms: Sulforhodamine B stains cellular protein and so reports cell mass.
Series [3] relates to KB. The series can be described thus: Antiproliferative activity against human KB cells by sulforhodamine B assay.
A short description of series [4]: Antiproliferative activity against human KBVIN cells by sulforhodamine B assay. It counts as functional, cell-based.
Series [5] concerns MCF7. The series can be described thus: Antiproliferative activity against human MCF7 cells by sulforhodamine B assay.
Series [6] can be described thus: Lipophilicity, log P of the compound. Format: physicochemical. The settings on record: octanol/water.
For series [7], the species on record is Homo sapiens. Description: Inhibition of tubulin polymerization in interphase stage of human MDA-MB-231 cells at 0.2 uM after 24 hrs by DAPI staining based confocal microscopic analysis.

On to `CCC1=C(OC)C(CC)(CC)c2oc(-c3csc4cc(NC(=O)OC(C)(C)C)ccc34)cc(=O)c2C1=O`, for which the concentration for half-maximal inhibition (IC50) in series [1] was 5.62 µM; in series [2], 6.52 µM; in series [3], 5.13 µM; in series [4], 5.02 µM; in series [5], 6.01 µM.
In series [6], `CCC1=C(O)c2c(oc(-c3csc4cc(N)ccc34)cc2=O)C(CC)(CC)C1=O` registered a logP of 2.11.
With `CCC1=C(OC)C(CC)(CC)C(O)=C(C(=O)/C=C/c2csc3ccc(NC(=O)OC(C)(C)C)cc23)C1=O`, the IC50 in series [1] came to 5.1 µM; in series [2] it was 7.48 µM; in series [3] it was 5.88 µM; in series [4] it was 5.45 µM; in series [5] it was 7.01 µM.
With `CC(=O)O[C@H]1C(=O)[C@@]2(C)[C@H]([C@H](OC(=O)c3ccccc3)[C@]3(O)C[C@H](OC(=O)[C@H](O)[C@@H](NC(=O)c4ccccc4)c4ccccc4)C(C)=C1C3(C)C)[C@]1(OC(C)=O)CO[C@@H]1C[C@@H]2O` [PACLITAXEL], the concentration for half-maximal inhibition (IC50) in series [4] turned out to be 2.04 µM.
Consider `CCC1=C(O)c2c(oc(-c3csc4cc(NC(=O)OC(C)(C)C)ccc34)cc2=O)C(CC)(CC)C1=O`, for which the IC50 in series [1], in series [2], in series [3], in series [4] and in series [5] was greater than 40 µM throughout.
With `COc1ccc(/C=C\c2cc(OC)c(OC)c(OC)c2)cc1O`, the inhibition entry in series [7] is “Active”.

The term IC50 denotes the concentration that inhibits the measured activity by half. A higher IC50 goes with weaker potency in that assay. One may read the logP as a log measure of how a compound divides between an organic and an aqueous phase.
